Where “and” joins values, the source holds several entries; their conditions need not be identical. Equal entries are not always repeated. Inconclusive results and toxic doses are left out.

This is an account of results in PubChem BioAssay AID256 (DTP/NCI, 2004).

The subject of this assay is CD2F1 mice, L1210 leukemia ip, survival T/C. Put plainly: NCI In Vivo Anticancer Drug Screen. Data for tumor model L1210 Leukemia (intraperitoneal) in CD2F1 (CDF1) mice. The conditions noted are these: endpoint: mean survival time, higher = longer survival. Summed up:
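Mice carrying a transplanted tumor received test compound or vehicle alone. The value is the measurement in the treated group divided by that in the vehicle-treated control group.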

Where [1] appears, read: dose: 100.0 mg/kg/injection, schedule: Q01DX009 (ip), vehicle: saline with Tween-80.
Where [2] appears, read: dose: 100.0 mg/kg/injection, schedule: Q04DX002 (ip), vehicle: saline with Tween-80.
[3] abbreviates: dose: 200.0 mg/kg/injection, schedule: Q04DX002 (ip), vehicle: saline with Tween-80.
The mark [4] stands for this setting: dose: 200.0 mg/kg/injection, schedule: Q01DX001 (ip), vehicle: saline.
[5] abbreviates: dose: 100.0 mg/kg/injection, schedule: Q01DX001 (ip), vehicle: saline with Tween-80.
The mark [6] stands for this setting: dose: 100.0 mg/kg/injection, schedule: Q04DX003 (ip), vehicle: saline with Tween-80.
Setting [7] is: dose: 200.0 mg/kg/injection, schedule: Q04DX003 (ip), vehicle: saline with Tween-80.
Where [8] appears, read: dose: 100.0 mg/kg/injection, schedule: Q04DX003 (ip), vehicle: Klucel (hydroxypropylcellulose) (HPC).
Where [9] appears, read: dose: 200.0 mg/kg/injection, schedule: Q04DX003 (ip), vehicle: Klucel (hydroxypropylcellulose) (HPC).
Setting [10] is: dose: 400.0 mg/kg/injection, schedule: Q04DX003 (ip), vehicle: Klucel (hydroxypropylcellulose) (HPC).
Where [11] appears, read: dose: 200.0 mg/kg/injection, schedule: Q01DX009 (ip), vehicle: saline with Tween-80.
Where [12] appears, read: dose: 400.0 mg/kg/injection, schedule: Q01DX009 (ip), vehicle: saline with Tween-80.
Where [13] appears, read: dose: 400.0 mg/kg/injection, schedule: Q04DX003 (ip), vehicle: saline with Tween-80.

Regarding `O=C(Nc1cccnc1)c1cccc([N+](=O)[O-])c1`, the T/C reads like this: (dose: 25.0 mg/kg/injection, schedule: Q01DX009 (ip), vehicle: Klucel (hydroxypropylcellulose) (HPC)) 108 % of control; (dose: 25.0 mg/kg/injection, schedule: Q04DX002 (ip), vehicle: Klucel (hydroxypropylcellulose) (HPC)) 97 % of control; (dose: 50.0 mg/kg/injection, schedule: Q01DX009 (ip), vehicle: Klucel (hydroxypropylcellulose) (HPC)) 110 % of control; (dose: 50.0 mg/kg/injection, schedule: Q04DX002 (ip), vehicle: Klucel (hydroxypropylcellulose) (HPC)) 102 % of control; (dose: 100.0 mg/kg/injection, schedule: Q01DX009 (ip), vehicle: Klucel (hydroxypropylcellulose) (HPC)) 93 % of control; (dose: 100.0 mg/kg/injection, schedule: Q04DX002 (ip), vehicle: Klucel (hydroxypropylcellulose) (HPC)) 97 % of control. The T/C was 92 % of control (dose: 200.0 mg/kg/injection, schedule: Q01DX009 (ip), vehicle: Klucel (hydroxypropylcellulose) (HPC)) and 96 % of control (dose: 200.0 mg/kg/injection, schedule: Q04DX002 (ip), vehicle: Klucel (hydroxypropylcellulose) (HPC)).

For the compound `CC(C)[CH2][Sn](=[O])[OH]`, the T/C reads like this: (dose: 50.0 mg/kg/injection, schedule: Q01DX009 (ip), vehicle: saline with Tween-80) 115 % of control; under setting [1], 103 % of control.

On to `CCN(C)N=Nc1ccc(NC(N)=O)cc1`, for which the T/C reads like this: (dose: 4.68 mg/kg/injection, schedule: Q01DX009 (ip), vehicle: Klucel (hydroxypropylcellulose) (HPC)) 109 % of control and 112 % of control; (dose: 9.37 mg/kg/injection, schedule: Q01DX009 (ip), vehicle: Klucel (hydroxypropylcellulose) (HPC)) 119 % of control and 108 % of control; (dose: 18.75 mg/kg/injection, schedule: Q01DX009 (ip), vehicle: Klucel (hydroxypropylcellulose) (HPC)) 124 % of control; (dose: 37.5 mg/kg/injection, schedule: Q01DX009 (ip), vehicle: Klucel (hydroxypropylcellulose) (HPC)) 152 % of control.

As to `COc1ccc(CCN2CC34C=CC(O3)C(C(=O)O)C4C2=O)cc1OCc1ccccc1` (stereo unspecified), the T/C reads like this: under setting [2], 95 % of control; under setting [3], 95 % of control; (dose: 400.0 mg/kg/injection, schedule: Q04DX002 (ip), vehicle: saline with Tween-80) 95 % of control.

As for `O=C(O)c1cc(C(=O)O)c(-c2ccccc2)c(-c2ccccc2)c1`, the T/C was 97 % of control (dose: 100.0 mg/kg/injection, schedule: Q01DX001 (ip), vehicle: saline); 97 % of control under setting [4]; 101 % of control (dose: 400.0 mg/kg/injection, schedule: Q01DX001 (ip), vehicle: saline).

With `O=C(NCC#CCN1CCCC1)Nc1cccc(Cl)c1`, the T/C (dose: 12.5 mg/kg/injection, schedule: Q04DX002 (ip), vehicle: saline with Tween-80) is 102 % of control; the T/C (dose: 25.0 mg/kg/injection, schedule: Q01DX001 (ip), vehicle: saline with Tween-80) was 92 % of control; the T/C (dose: 25.0 mg/kg/injection, schedule: Q04DX002 (ip), vehicle: saline with Tween-80) is 95 % of control; the T/C (dose: 50.0 mg/kg/injection, schedule: Q01DX001 (ip), vehicle: saline with Tween-80) is 106 % of control; the T/C (dose: 50.0 mg/kg/injection, schedule: Q04DX002 (ip), vehicle: saline with Tween-80) was 87 % of control; the T/C under setting [5] was 92 % of control and 93 % of control. The T/C under setting [2] was 98 % of control.

For the compound `CN(Cc1ccc[n+](Cc2ccc(S(=O)(=O)F)cc2)c1)C(=O)COc1ccc(Cl)c(Cl)c1`, the T/C is 98 % of control under setting [6] and 96 % of control under setting [7].

Regarding `S=c1[nH]c2ccccc2n1CCc1ccncc1`, the T/C was 108 % of control (dose: 100.0 mg/kg/injection, schedule: Q#A X016 (ip), vehicle: saline); 95 % of control (dose: 200.0 mg/kg/injection, schedule: Q#A X016 (ip), vehicle: saline); 102 % of control (dose: 400.0 mg/kg/injection, schedule: Q## X016 (ip), vehicle: saline); 98 % of control (dose: 400.0 mg/kg/injection, schedule: Q#A X016 (ip), vehicle: saline); 100 % of control (dose: 800.0 mg/kg/injection, schedule: Q## X016 (ip), vehicle: saline); 100 % of control (dose: 1600.0 mg/kg/injection, schedule: Q## X016 (ip), vehicle: saline).

Regarding `CCNc1ncc2ccccc2c1-c1ccc(N2CCN(CCCl)CC2)cc1`, the T/C was 111 % of control (dose: 25.0 mg/kg/injection, schedule: Q04DX003 (ip), vehicle: saline + alcohol); 102 % of control (dose: 50.0 mg/kg/injection, schedule: Q04DX003 (ip), vehicle: saline + alcohol); 102 % of control (dose: 100.0 mg/kg/injection, schedule: Q04DX003 (ip), vehicle: saline + alcohol); 111 % of control (dose: 200.0 mg/kg/injection, schedule: Q04DX003 (ip), vehicle: saline + alcohol).

In the case of `Nc1n[nH]c(=O)[nH]1`, the T/C runs as follows: (dose: 31.3 mg/kg/injection, schedule: Q03HX024 (ip), vehicle: saline) 106 % of control; (dose: 62.5 mg/kg/injection, schedule: Q03HX024 (ip), vehicle: saline) 106 % of control; (dose: 125.0 mg/kg/injection, schedule: Q03HX024 (ip), vehicle: saline) 109 % of control; (dose: 250.0 mg/kg/injection, schedule: Q03HX024 (ip), vehicle: saline) 161 % of control.

Turning to `CCCCCCCCC1SC1CCCCCCCCOC(=O)CCCCCCCC1SC1CCCCCCCC` (stereo unspecified), the T/C reads like this: under setting [8], 95 % of control; under setting [9], 93 % of control; under setting [10], 102 % of control.

Consider `CCOC(=O)C1CC1C(=O)OCC` (stereo unspecified), for which the T/C was 88 % of control under setting [1]; 100 % of control under setting [6]; 104 % of control under setting [11]; 96 % of control under setting [7]; 100 % of control under setting [12]; 103 % of control under setting [13].

As to `CNC(=S)NCc1ccc(C(=O)NC(C)C)cc1`, the T/C is 97 % of control (dose: 50.0 mg/kg/injection, schedule: Q01DX009 (ip), vehicle: other); 95 % of control (dose: 100.0 mg/kg/injection, schedule: Q01DX009 (ip), vehicle: other); 100 % of control (dose: 200.0 mg/kg/injection, schedule: Q01DX009 (ip), vehicle: other); 91 % of control (dose: 400.0 mg/kg/injection, schedule: Q01DX009 (ip), vehicle: other).

For the compound `COC(=O)c1ccc([N+](=O)[O-])cc1O`, the T/C reads like this: under setting [1], 105 % of control; under setting [11], 102 % of control; under setting [12], 97 % of control.

Take `CN(C)CCSc1nnc(N)s1`: the T/C under setting [4] is 100 % of control.

For `CCCCCC(C=O)C(O)(C(F)(F)F)C(F)(F)Cl` (stereo unspecified), the T/C is 96 % of control under setting [8], 91 % of control under setting [9] and 96 % of control under setting [10].

In the case of `CSC(=NC#N)N(C)C`, the T/C by setting is: (dose: 25.0 mg/kg/injection, schedule: Q04DX003 (ip), vehicle: saline sonified) 105 % of control; (dose: 50.0 mg/kg/injection, schedule: Q04DX003 (ip), vehicle: saline sonified) 95 % of control; under setting [5], 114 % of control.

In the case of `COc1ccc(C(=Cc2cc(OC(C)=O)c3ccccc3c2OC(C)=O)c2ccc(OC)cc2)cc1`, the T/C was 97 % of control under setting [6], 89 % of control under setting [7] and 91 % of control under setting [13].

`Cc1ccc(C(=O)CCCCl)cc1C`: the T/C by setting is: under setting [1], 104 % of control; under setting [11], 96 % of control; under setting [12], 98 % of control.

On to `O=C(O)c1ccccc1NCNc1ccccc1C(=O)O`, for which the T/C by setting is: under setting [6], 100 % of control; under setting [7], 93 % of control; under setting [13], 110 % of control.

Consider `CN(C)/C(=C\C(=O)c1ccccc1)c1ccccc1`, for which the T/C runs as follows: (dose: 25.0 mg/kg/injection, schedule: Q04DX003 (ip), vehicle: saline with Tween-80) 104 % of control; (dose: 50.0 mg/kg/injection, schedule: Q04DX003 (ip), vehicle: saline with Tween-80) 108 % of control; under setting [6], 93 % of control.

For `CC(C)(CCC#N)C(=O)c1ccccc1`, the T/C reads like this: under setting [2], 94 % of control; under setting [3], 102 % of control.

`O=C(Cl)OC1CS(=O)(=O)CC1O` (stereo unspecified): the T/C is 98 % of control under setting [6], 98 % of control under setting [7] and 101 % of control under setting [13].

For the compound `CCOC(=O)C(C(C)=O)C(C)=O`, the T/C was 102 % of control under setting [6], 94 % of control under setting [7] and 94 % of control under setting [13].
